Key:
[1] = tested on: GLP1R; conditions: cited from earlier work
Text: To investigate whether the activity of the peptides was not influenced by the post-translational modifications by yeast or differences in secretion efficiencies, WT Ex4 and Ex4 variants fused with an N-terminal FLAG sequence were produced using Escherichia coli. The peptides were purified using anti-FLAG resin, and reacted with enterokinase, which cleaves the peptides after the FLAG sequence to expose free N-terminal of Ex4 peptides. We added the purified WT Ex4 produced by E. coli with or without enterokinase reactions to the hGLP1R/NLuc-293 cells, and observed a significant increase in lumin ...

[2] = tested on: human GLP1R (hGLP1R); assay: Functional cell-based assay, adherent hGLP1R/LacZ-293 reporter cells (LacZ fluorescence); conditions: DMEM, 50 µM CMFDG, 37 °C, 12 h
Procedure: (§1) To construct a reporter cell line that constitutively produces human GLP1R (hGLP1R) and inducibily secretes NanoLuc in response to the activation of hGLP1R, pIRES-hGLP1R, and pCRE-NLuc[13], were co-transfected in HEK293 cells (European Collection of Cell Culture, Salisbury, UK) using Xfect™ (Clontech Laboratries, Inc., Mountain View, CA, USA). The transfected cells were cultured in Dulbecco’s Modified Eagle Medium (DMEM) (Nacalai Tesque, Kyoto, Japan) containing 10% FBS (GE Healthcare, Little Chalfont, UK), 1% penicillin-streptomycin (Sigma-Aldrich, St. Louis, MO, USA), 400 µg/mL G418 (Nacalai Tesque), and 0.1 µg/mL puromycin (Wako Pure Chemical Industries, Osaka, Japan). The reporter cells were selected to establish a stable cell line harboring GLP1R and secretory NanoLuc genes (hGLP1R/NLuc-293)[13]. […]
To perform a functional assay using the adherent hGLP1R/LacZ-293 cell line, hGLP1R/LacZ-293 cells were seeded at 5 × 10^3 cells/100 µL in a 96-well plate (Thermo Fisher Scientific) and cultured at 37 °C for 24 h. […] After 12 h incubation at 37 °C, fluorescence intensity was measured using Fluoroskan Ascent™ Microplate Fluorometer.

[3] = tested on: human GLP1R (hGLP1R); assay: Co-culture of floating hGLP1R/LacZ-293 and ligand-secreting yeast cells; type: cell-based; conditions: co-culture with yeast cells secreting Ex4 (4.5 × 10^5 cells/50 µL) vs WT yeast, RPMI-1640, 50 µM CMFDG, 37 °C, 12 h, n = 3, Fig. 3b
Text: Saccharomyces cerevisiae BY4742 [MATα, his3Δ1, leu2Δ0, lys2Δ0, ura3Δ0] (GE Healthcare) was used for the secretion of a hGLP1R agonist, Exendin-4 (Ex4, produced by the Gila monster[31]) and randomized Ex4 variants. To construct an Ex4-secretory yeast, pULS-Ex4[13] was transformed into the BY4742 strain using the Frozen-EZ Yeast Transformation-II Kit (Zymo Research, Orange, CA, USA). Yeast cells secreting randomized Ex4 variants were constructed using gap repair cloning[34] as follows. pULS plasmid[13] was digested with EcoRI and KpnI to obtain a linear vector fragment. Insert DNA fragments encoding Ex4 genes whose two N-terminal amino acids were randomized were PCR-amplified from pULS-Ex4 using the following primers: 5′-[…]-3′ and 5′-[…]-3′. The BY4742 strains were transformed using the linear vector fragments (500 ng) and the randomized insert fragments (250 ng) for gap repair cloning. […]
Co-culture of floating hGLP1R/LacZ-293 and ligand-secreting yeast cells was carried out using the following procedure. […] Immediately after the modification, the solution was incubated in a 96-well plate at 37 °C for 12 h, and fluorescence intensity was measured.

[4] = tested on: human GLP1R (hGLP1R); assay: Functional cell-based assay, adherent hGLP1R/NLuc-293 reporter cells (NanoLuc luminescence); conditions: DMEM, 37 °C, 12 h
Procedure: as §1, with “Japan).” for “Japan). The reporter cells were selected to establish a stable cell line harboring GLP1R and secretory NanoLuc genes (hGLP1R/NLuc-293)[13].”
To perform a functional assay using the adherent hGLP1R/NLuc-293 cell line, hGLP1R/NLuc-293 cells were seeded at 5 × 10^3 cells/100 µL in a 96-well plate (Thermo Fisher Scientific) and cultured at 37 °C for 24 h. […] Afterwards, 50 µL luciferase substrate (Nano-Glo™ Luciferase Assay System, Promega, Fitchburg, WI, USA) was added, and luminescence intensity was measured using a Fluoroskan Ascent™ Microplate Fluorometer (Thermo Fisher Scientific).
To verify the activities of the identified Ex4 variants, we prepared variant peptides using E. coli as follows. […] The calibration curve used for quantification was obtained with standard FLAG peptides (Wako Pure Chemical Industries).

[5] = tested on: human GLP1R (hGLP1R); assay: Functional cell-based assay, floating hGLP1R/LacZ-293 cells; conditions: 30 nM authentic Ex4, floating cells 5 × 10^3 cells/50 µL, RPMI-1640, 50 µM CMFDG, 37 °C, 12 h; n = 3; Fig. 3a
Procedure: as §1, with “(hGLP1R/NLuc-293)[13]. To construct a reporter cell line that secretes LacZ in response to the activation of hGLP1R, pIRES-hGLP1R[13], and pCRE-LacZ were co-transfected in HEK293 cells, and a reporter cell line, hGLP1R/LacZ-293, was selected using a medium containing G418 and puromycin.” for “(hGLP1R/NLuc-293)[13].”
An assay using floating hGLP1R/LacZ-293 was carried out using the following procedure. […] Immediately after the modification, the solution was placed in a 96-well plate and incubated at 37 °C for 12 h, and fluorescence intensity was measured.

[6] = tested on: human GLP1R (hGLP1R); assay: Functional cell-based assay in droplets (droplet microfluidics), hGLP1R/LacZ-293; conditions: 6 h, Fig. 4b; for fluorescence intensity of droplets: DMEM, 50 µM CMFDG, 30 °C, at least 70 droplets
Text: A single-inlet microfluidic device was designed according to previous reports[39],[40] (Fig. S1). In brief, polydimethylsiloxane (PDMS, Sylgard 184, Dow Corning Corp, Midland, MI, USA) and its cross-linker were mixed at a ratio of 10:1 (w/w), degassed, poured onto a master mold, and cured. The cured PDMS was peeled from the mold and punched with 0.75 mm biopsy punch (World Precision Instruments, Sarasota, FL, USA). The PDMS slab was bonded to a glass slide by plasma treatment (Plasma Cleaner PDG-32G; Harrick Scientific, Pleasantville, NY, USA), and baked for at least 30 min at 70 °C. The microfluidics device, an air compressor, Mitos P-Pump Basic (Dolomite, Charleston, MA, USA) were connected, and the pressure was set to be about 150 mbar for aqueous phase and about 300 mbar for oil phase. To generate droplets, cell suspension and a carrier phase (FC40 containing 5% (v/v) of the surfactant Pico-Surf1, Dolomite), were pumped into the cross-junction.
As a proof-of-principle experiment, hGLP1R/LacZ-293 was suspended at 5.0 × 10^6 cells/mL in the following media: DMEM, DMEM containing authentic Ex4, DMEM containing WT S. cerevisiae (Yeast-WT), or DMEM containing Ex4-secreting S. cerevisiae (Yeast-Ex4). The concentration of yeast cells was set to be 9.1 × 10^6 cells/mL. CMFDG was added in the media to realize a concentration of 50 µM. After encapsulation, the droplets were incubated at 30 °C for 6 h. Fluorescence intensity of each droplet was calculated by image analysis under a confocal laser scanning fluorescence microscope.

[7] = 30 nM authentic Ex4 vs 0 nM, mean ± SD (n = 3), two-tailed Student's t-test, Fig. 2a
[8] = culture supernatants of Ex4-secretory yeast (yeast-Ex4) vs WT yeast, n = 3, Fig. 2b

exendin-4 [Ex4]
agonist strength at GLP1R [1]: very strong agonist | reporter signal (LacZ fluorescence) [2, 7]: significant reporter signals in both lines | reporter signal (LacZ fluorescence) [2, 8]: significant reporter signals in both lines | fluorescence (LacZ reporter) [3]: significant increase in fluorescence | reporter signal (NanoLuc luminescence) [4, 7]: significant reporter signals in both lines | reporter signal (NanoLuc luminescence) [4, 8]: significant reporter signals in both lines | fluorescence (LacZ reporter) [5]: significant increase in fluorescence | overlap of box plots of droplet fluorescence, "Ex4" vs "no ligand" ([6]; 30 nM authentic Ex4, 30 °C): partially overlapped | fluorescence intensity of droplets ([6]; 30 nM authentic Ex4 vs no ligand, two-tailed Student's t-test): significant increases in fluorescence intensity | fluorescence intensity of droplets ([6]; yeast cells secreting Ex4 (9.1 × 10^6 cells/mL) vs Yeast-WT): significant increases in fluorescence intensity
